Data published in patent publication US11684581B2, “Drug and layered silicate composite with improved oral bioavailability, oral pharmacological composition containing the composite and method for producing the composite” (KOREA INSTITUTE OF GEOSCIENCE AND MINERAL RESOURCES, priority 2018, dated 2023).
Values after ≈ are worked out from the molar mass of the structure shown.

Assays:
[1] = Drug release (eruption) experiment in eruption solution, HPLC; format: physicochemical; details: 50 rpm
Method: Drug release experiments were conducted to confirm the release of the drug from the bentonite based on the surrounding environment type. Specifically, the sorafenib 800 μg and the bentonite composite produced under the process condition of Present Example 7 containing 800 μg of sorafenib were dispersed in 40 ml of an eruption solution respectively to form two dispersions. The, each dispersion was shaken at 37° C. at 50 rpm to effect eruption.
The eruption solution used in this experiment was embodied as each of a solution of 0.1 N HCl in water at pH 1.2 and 50 mM phosphate buffer at pH 7.4. Further, 0.5% (v/v) Tween 80 (Polyoxyethyelene Sorbitan Monooleate) was added to the eruption solution to dissolve the sorafenib sufficiently.
Then, the eruption solution was collected based on a time schedule by 0.4 mL, filtered and analyzed by a high performance liquid chromatography.

[2] = Solubility of sorafenib in mixed solvent (acetonitrile / 1 N hydrochloric acid / dimethyl sulfoxide); format: physicochemical; details: aqueous with cosolvent or surfactant or cyclodextrin; 15% acetonitrile, 83% 1 N hydrochloric acid, 2% dimethyl sulfoxide; read-out: solubility of sorafenib (dissolved concentration)
Method: In one example, the solubility of sorafenib when the ratio between acetonitrile and 1 N hydrochloric acid was adjusted while the dimethyl sulfoxide ratio in the total mixed solvent was fixed at 2% was measured. As a result, we dissolved the sorafenib at a concentration of 0.5 mg/mL while at a concentration of 15% acetonitrile and 83% of 1 N hydrochloric acid.

[3] = cited from earlier work
[4] = In vivo pharmacokinetics analysis after oral administration; details: rat, 10 mg/kg based on sorafenib
Method: In order to evaluate the absorption and disappearance rate of the drug during oral administration, a in vivo pharmacokinetics analysis was performed on rats. A femoral artery of the rat was cannulated with PESO tubes. Then, sorafenib suspension, and sorafenib and bentonite composite suspension as produced according to Present Example 7 were orally administered into the rat. Thereafter, the rat blood was collected through the PESO tube based on a time schedule and was centrifuged to obtain plasma. After the plasma samples were pretreated, the in-blood drug concentration was analyzed using a mass spectrometer. The dose was set to 10 mg/kg based on the amount of the sorafenib. The plasma was collected over 2 days.
FIG. 7 is a graph showing changes in concentration of a drug in a blood over time in oral administration of sorafenib suspension (●) and sorafenib and bentonite composite suspension (□).

With `CNC(=O)c1cc(Oc2ccc(NC(=O)Nc3ccc(Cl)c(C(F)(F)F)c3)cc2)ccn1` [Sorafenib, sorafenib] the “released amount of the sorafenib” value ([1]; 50 mM phosphate buffer pH 7.4, 0.5% (v/v) Tween 80, 37° C., 8 hours) was “below 30%”, the “released amount of the sorafenib” value ([1]; 0.1 N HCl pH 1.2, 0.5% (v/v) Tween 80, 37° C., 8 hours stated for sorafenib alone) was “below 30%” and the solubility [2] was 500 µg/mL (≈ 1080 µM). The In vivo half-life ([3]; background statement) was 24 to 48 h, the “amount of the drug taken excreted in feces” value ([3]; oral, during about a week until steady-state) was “More than 70%” and the AUC(0-inf) ([4]; plasma) was 4850 ng·h/mL. For the same compound, the Cmax ([4]; plasma) was 100 ± 20 ng/mL, the MRT ([4]; plasma) was 20.5 h and the Tmax ([4]; plasma) was 6.67 h. For the same compound, the half-life ([4]; plasma) was 28.2 ± 6.15 h and the AUC(0-t) ([4]; plasma collected over 2 days) was 3120 ng·h/mL.
